Several values for one entry are separate records, joined by “and”; a condition that tells them apart may be missing. Equal values may be shown once.
Assay: Rat mesenteric lymph duct cannulation model: lymphatic fluid and blood
Assay type: in vivo
Conditions: anesthetized rats; for Lymphatic fluid Concentration (ng/mL or ng/g): individual animals
Description: A rat mesenteric lymph duct cannulation model was used to collect and quantify LP-182 in lymphatic fluid, blood, and lymphatic proteo-lipid sub-fractions similar to previously described methods[37],[40]. Male Sprague-Dawley rats (n = 7) were anesthetized by isoflurane (Piramel, PA) and placed on a heated pad maintained at 37 °C using a Kent Scientific (Torrington, CT) low flow vaporizer and SomnoSuite for pulse oximetry and thermal regulation, respectively. The carotid artery, mesenteric lymph duct and duodenum were cannulated, and normal saline was continuously infused into the duodenum at 1.7 mL h^−1 using a constant rate infusion pump. After approx. 0.5 h, 50 mg kg^−1 of LP-182 solubilized in ~1.7 mL of either Maisine CC or a mixture of 93% Maisine CC and 7% Labrasol (Gattefossé; Saint-Priest, France) was infused over 1 h into the duodenum, followed by normal saline (as above) for the duration of the experiment. Hourly fractions of lymphatic fluid were collected continually (rate of ~0.5–1.2 mL h^−1) for approx. 6 h, while arterial blood samples (10–20 µL) were collected once per hour and stored at −20 °C for future analysis. Lymphatic fluid time course samples were either frozen or pooled for subsequent fractionation by ultracentrifugation to isolate proteo-lipid sub-fractions similar to previously described methods. Separation of chylomicrons was achieved by layering lymphatic fluid under PBS (Gibco; ThermoFisher Scientific) in a polyallomer ultracentrifuge tube (Beckman, CA), and centrifugation in a L8-70M ultracentrifuge (Beckman, CA) at 202,048 x g using a SW40Ti rotor (Beckman, CA) for 95 min at 15 °C. Following centrifugation, the semi-solid chylomicron layer at the top of the centrifuge tube was recovered and stored at −20 °C for future analysis. After replacing the void volume with PBS, the bottom layer underwent further ultracentrifugation for an additional 16 h as above, at which time a viscous dispersion of VLDL was collected from the top of the tube, and an aqueous fraction containing LDL/HDL from the bottom, which were stored at −20 °C for future analysis. All lymphatic fluid, blood, and fractionated chylomicron, VLDL, and LDL/HDL samples were analyzed by mass spectrometry for quantitation of LP-182 as outlined below. Relative LP-182 in lymphatic fluid proteo-lipid sub-fractions was calculated as the amount of compound in a specified fraction as a percentage of the cumulative amount of compound measured in all fractions. […] Relative LP-182 in blood was calculated as the amount of compound measured in a specified temporal fraction of blood as a percentage of the amount of compound measured in an equal volume of the same temporal fraction of lymphatic fluid, with the average calculated from all fractions. Data was generated from n = 2 individual animals sampled per time point per study condition due to limitations in blood volume collection.
Standards and compound extraction from biological fluids or tissues was performed using similar protocols, all resulting in recoveries ≥90%. Briefly, acetonitrile was added to a final concentration of 60–80% to bone marrow, whole blood, plasma, lymphatic fluid, lymphatic proteo-lipid sub-fractions, or mesenteric lymph node samples for compound extraction. Extraction was performed by shaking and/or bead rupture using a Precellys Evolution tissue homogenizer (Bertin Technologies SAS). […] Optimization of MS and MS/MS parameters for MRM quantitation and maximum sensitivity of individual compounds was performed using SCIEX Analyst software (AB Sciex). […] All LC-MS/MS acquisitions were performed with an independent standard curve for each group of analytes and for each individual run. All solvents utilized were of Optima LC-MS Grade (Fisher Scientific). Data was generated from n ≥ 2 individual animals per compound per study condition or dose.

[1] = 1 h intra-duodenal infusion 50 mg kg^−1, 6 h

For `O=C(NOCCOCCOCCOCCC(=O)N1CCN(c2cnc3ccc(-c4cnc(Cl)c(NS(=O)(=O)c5ccc(F)cc5)c4)cc3n2)CC1)c1ccc(F)c(F)c1Nc1ccc(I)cc1F` [LP-182, N-(2-(2-(2-(3-(4-(7-(6-chloro-5-((4-fluorophenyl)sulfonamido)pyridin-3-yl)quinoxalin-2-yl)piperazin-1-yl)-3-oxopropoxy)ethoxy)ethoxy)ethoxy)-3,4-difluoro-2-((2-fluoro-4-iodophenyl)amino)benzamide], the “Lymphatic fluid Concentration (ng/mL or ng/g)” value (shortened to “Lymphatic fluid Concentration”) (1 h intra-duodenal infusion 50 mg kg^−1, 0 h) was 0 ng/mL or ng/g, the “Lymphatic fluid Concentration” value (1 h intra-duodenal infusion 50 mg kg^−1, 1 h) was 1075.78 ng/mL or ng/g and 810.78 ng/mL or ng/g and 1128.99 ng/mL or ng/g and 810.9 ng/mL or ng/g and 526.14 ng/mL or ng/g and 195.59 ng/mL or ng/g and 1185.4 ng/mL or ng/g and the “Lymphatic fluid Concentration” value (1 h intra-duodenal infusion 50 mg kg^−1, 2 h) was 15938.1 ng/mL or ng/g and 4987.49 ng/mL or ng/g and 11915.5 ng/mL or ng/g and 8277.36 ng/mL or ng/g and 1691.13 ng/mL or ng/g and 3232.84 ng/mL or ng/g and 9168 ng/mL or ng/g. For the same compound, the “Lymphatic fluid Concentration” value (1 h intra-duodenal infusion 50 mg kg^−1, 3 h) was 11950.5 ng/mL or ng/g and 2555.63 ng/mL or ng/g and 6787.62 ng/mL or ng/g and 11961.6 ng/mL or ng/g and 3014.24 ng/mL or ng/g and 1175.13 ng/mL or ng/g and 13326 ng/mL or ng/g, the “Lymphatic fluid Concentration” value (1 h intra-duodenal infusion 50 mg kg^−1, 4 h) was 4407.66 ng/mL or ng/g and 5844.35 ng/mL or ng/g and 3822.74 ng/mL or ng/g and 8176.6 ng/mL or ng/g and 1916.83 ng/mL or ng/g and 592.35 ng/mL or ng/g and 6976.86 ng/mL or ng/g and the “Lymphatic fluid Concentration” value (1 h intra-duodenal infusion 50 mg kg^−1, 5 h) was 4529.02 ng/mL or ng/g and 3482.33 ng/mL or ng/g and 3674.05 ng/mL or ng/g and 7088.41 ng/mL or ng/g and 2106.37 ng/mL or ng/g and 169.31 ng/mL or ng/g and 7019.83 ng/mL or ng/g. The “level in blood as % of total compound measured among each set of temporal fractions” value [1] was 1.7% and the “Lymphatic fluid Concentration” value [1] was 2432.36 ng/mL or ng/g and 2631.07 ng/mL or ng/g and 1756.69 ng/mL or ng/g and 8133.27 ng/mL or ng/g and 2059.99 ng/mL or ng/g and 330.98 ng/mL or ng/g and 2839 ng/mL or ng/g.

Source: paper PMC9386018, “A lymphatic-absorbed multi-targeted kinase inhibitor for myelofibrosis therapy” (Nature Communications, 2022)
